Measurements from patent US20250163057A1, “DCN-1 MODULATING COMPOUNDS AND METHODS OF USE THEREOF” (Cellarity, Inc., priority 2023, published 2025).
pEC50, pIC50: −log10 of the molar value.

Key:
[1] = tested on: fetal hemoglobin gene HBG1; test: HBG1 Nanostring Assay in CD34+ HSPC erythroid differentiation culture; assay type: cell-based, human; details: for Nanostring Ymax obs (%): relative to a control compound (C1); for pEC50: HBG1 induction, Day10 of erythroid differentiation
Procedure, shortened: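 HBG1 counts came from direct nCounter hybridization (67° C, 22 h) of day-10 lysates, normalized to ERCC positive controls and a housekeeping gene, giving EC50 and Ymax versus a reference compound. Compounds in 0.1% DMSO were present from day −2 while cells underwent EPO/SCF/IL-3 erythroid differentiation, with IL-3 dropped at day 7, at 37° C.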

[2] = tested on: Cullin-3 (CUL3) neddylation; test: AlphaLISA assay for Cullin-3 (CUL3) neddylation in TF 1 cells; assay type: cell-based; details: 3 hours treatment
Procedure, shortened: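 Neddylated CUL3 was quantified by AlphaLISA in lysates of TF 1 cells exposed for 3 h to test compound in IMDM without supplements. Percent inhibition set between vehicle and 1 μM DI-1548 positive control; IC50 derived by Hill-equation fitting of dose-response curves.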

SMILES: CCN1C(=O)[C@@H](NC(=O)c2cccc(C(F)(F)F)c2)[C@@H](c2ccc(F)cc2)c2c(C(=O)N3CCC[C@H]3C#N)nn(-c3ccccc3)c21 (mixture of isomers) [Compound I-34]
- Nanostring Ymax obs (%) [1]: ++ (Nanostring Ymax greater than 50.0 and less than or equal to 100.0)

SMILES: CCN1C(=O)[C@@H](NC(=O)c2cccc(C(F)(F)F)c2)[C@@H](C2CC2)c2c(C(=O)N3CCS(=O)(=O)C[C@H]3C#N)nn(C3CCOCC3)c21 (mixture of isomers) [Compound I-379]
- pEC50 ([1]; Homo sapiens, 240 h): ≥ 7.00
- Nanostring Ymax obs (%) [1]: +++ (Nanostring Ymax greater than 100.0)
- pIC50 ([2]; Homo sapiens, TF-1, 3 h): ≥ 7.00

SMILES: CCN1C(=O)[C@@H](NC(=O)c2cccc(C(F)(F)F)c2)[C@@H](c2ccc(F)cc2)c2c(C(=O)N3CS(=O)(=O)C[C@H]3C#N)nn(C3CCOCC3)c21 (mixture of isomers) [Compound I-661, N-((4S,5S)-3-(4-cyano-1,1-dioxidothiazolidine-3-carbonyl)-7-ethyl-4-(4-fluorophenyl)-6-oxo-1-(tetrahydro-2H-pyran-4-yl)-4,5,6,7-tetrahydro-1H-pyrazolo[3,4-b]pyridin-5-yl)-3-(trifluoromethyl)benzamide]
- pEC50 ([1]; Homo sapiens, 240 h): ≥ 7.00
- Nanostring Ymax obs (%) [1]: ++ (Nanostring Ymax greater than 50.0 and less than or equal to 100.0)
- pIC50 ([2]; Homo sapiens, TF-1, 3 h): ≥ 7.00

SMILES: CCN1C(=O)[C@@H](NC(=O)c2cccc(C(F)(F)F)c2)[C@@H](c2ccc(F)cc2)c2c(CNC(=O)/C=C/C(=O)OC)nn(-c3ccccc3)c21 (racemic) [Compound I-3]
- pEC50 ([1]; Homo sapiens, 240 h): ≥ 7.00
- Nanostring Ymax obs (%) [1]: +++ (Nanostring Ymax greater than 100.0)
- pIC50 ([2]; Homo sapiens, TF-1, 3 h): ≥ 7.00

SMILES: C=C(CN1CCC1)C(=O)NCc1nn(-c2ccccc2)c2c1[C@H](c1ccc(F)cc1)[C@H](NC(=O)c1cccc(C(F)(F)F)c1)C(=O)N2CC (racemic) [Compound I-49, rac-N-((4R,5R)-3-((2-(azetidin-1-ylmethyl)acrylamido)methyl)-7-ethyl-4-(4-fluorophenyl)-6-oxo-1-phenyl-4,5,6,7-tetrahydro-1H-pyrazolo[3,4-b]pyridin-5-yl)-3-(trifluoromethyl)benzamide]
- Nanostring Ymax obs (%) [1]: ++ (Nanostring Ymax greater than 50.0 and less than or equal to 100.0)
- pIC50 ([2]; Homo sapiens, TF-1, 3 h): ≥ 7.00

SMILES: CCN1C(=O)[C@@H](NC(=O)c2cccc(C(F)(F)F)c2)[C@@H](c2ccc(F)cc2)c2c(NC(=O)C3=CCC3)nn(-c3ccccc3)c21 (racemic) [Compound I-152]
- pEC50 ([1]; Homo sapiens, 240 h): 6.00 to 7.00
- Nanostring Ymax obs (%) [1]: +++ (Nanostring Ymax greater than 100.0)
- pIC50 ([2]; Homo sapiens, TF-1, 3 h): 6.00 to 7.00

SMILES: CCN1C(=O)[C@@H](NC(=O)c2cccc(C(F)(F)F)c2)[C@@H](c2ccc(F)cc2)c2c([C@@H](C)NC#N)nn(-c3ccccc3)c21 [Compound I-73, N-((4S,5S)-3-((R)-1-cyanamidoethyl)-7-ethyl-4-(4-fluorophenyl)-6-oxo-1-phenyl-4,5,6,7-tetrahydro-1H-pyrazolo[3,4-b]pyridin-5-yl)-3-(trifluoromethyl)benzamide]
- pEC50 ([1]; Homo sapiens, 240 h): ≥ 7.00
- Nanostring Ymax obs (%) [1]: ++ (Nanostring Ymax greater than 50.0 and less than or equal to 100.0)
- pIC50 ([2]; Homo sapiens, TF-1, 3 h): ≥ 7.00

SMILES: CCN1C(=O)[C@@H](NC(=O)c2cccc(C(F)(F)F)c2)[C@@H](c2ccc(F)cc2)c2c(CN(C)C#N)nn(-c3ccccc3)c21 [Compound I-92]
- pEC50 [1]: 6.00 to 7.00
- Nanostring Ymax obs (%) [1]: ++ (Nanostring Ymax greater than 50.0 and less than or equal to 100.0)
- pIC50 ([2]; Homo sapiens, TF-1, 3 h): 6.00 to 7.00

SMILES: CCN1C(=O)[C@@H](NC(=O)c2cccc(C(F)(F)F)c2)[C@@H](c2ccc(F)cc2)c2c(C(=O)NC3(C#N)CC3)nn(-c3ccccc3)c21 [Compound I-112]
- pEC50 ([1]; Homo sapiens, 240 h): 6.00 to 7.00
- Nanostring Ymax obs (%) [1]: +++ (Nanostring Ymax greater than 100.0)
- pIC50 ([2]; Homo sapiens, TF-1, 3 h): 6.00 to 7.00

SMILES: C=C(CN1CCC1)C(=O)NCc1nn(-c2ccccc2)c2c1[C@@H](c1ccc(F)cc1)[C@H](NC(=O)c1cccc(C(F)(F)F)c1)C(=O)N2CC [Compound I-139]
- Nanostring Ymax obs (%) [1]: ++ (Nanostring Ymax greater than 50.0 and less than or equal to 100.0)
- pIC50 ([2]; Homo sapiens, TF-1, 3 h): ≥ 7.00

SMILES: CCN1C(=O)[C@@H](NC(=O)c2cccc(C(F)(F)F)c2)[C@@H](c2ccc(F)cc2)c2c(CNC#N)nn(-c3ccccc3)c21 [Compound I-140, N-[(4S, 5S)-3-[(cyanoamino)methyl]-7-ethyl-4-(4-fluorophenyl)-6-oxo-1-phenyl-4,5-dihydropyrazolo[3,4-b]pyridine-5-yl]-3-(trifluoromethyl) benzamide]
- pEC50 ([1]; Homo sapiens, 240 h): 6.00 to 7.00
- Nanostring Ymax obs (%) [1]: ++ (Nanostring Ymax greater than 50.0 and less than or equal to 100.0)
- pIC50 ([2]; Homo sapiens, TF-1, 3 h): ≥ 7.00

SMILES: CCN1C(=O)[C@@H](NC(=O)c2cccc(C(F)(F)F)c2)[C@@H](C2CC2)c2c(C(=O)N3[C@H](C#N)C[C@H]4C[C@H]43)nn(C3CCOCC3)c21 [Compound I-256, N-((4S,5S)-3-((1R,3S,5R)-3-cyano-2-azabicyclo[3.1.0]hexane-2-carbonyl)-4-cyclopropyl-7-ethyl-6-oxo-1-(tetrahydro-2H-pyran-4-yl)-4,5,6,7-tetrahydro-1H-pyrazolo[3,4-b]pyridin-5-yl)-3-(trifluoromethyl)benzamide]
- pEC50 ([1]; Homo sapiens, 240 h): ≥ 7.00
- Nanostring Ymax obs (%) [1]: +++ (Nanostring Ymax greater than 100.0)
- pIC50 ([2]; Homo sapiens, TF-1, 3 h): ≥ 7.00

SMILES: CCN1C(=O)[C@@H](NC(=O)c2cccc(C(F)(F)F)c2)[C@@H](c2ccc(F)cc2)c2c(C(=O)N3[C@H](C#N)C[C@H]4C[C@H]43)nn(-c3ccccc3)c21 [Compound I-277]
- pEC50 ([1]; Homo sapiens, 240 h): ≥ 7.00
- Nanostring Ymax obs (%) [1]: +++ (Nanostring Ymax greater than 100.0)
- pIC50 ([2]; Homo sapiens, TF-1, 3 h): ≥ 7.00

SMILES: CCN1C(=O)[C@@H](NC(=O)c2cccc(C(F)(F)F)c2)[C@@H](c2ccc(F)cc2)c2c(C(=O)N3CCC[C@H]3C#N)nn(-c3ccccc3)c21 [Compound I-278]
- pEC50 ([1]; Homo sapiens, 240 h): ≥ 7.00
- Nanostring Ymax obs (%) [1]: +++ (Nanostring Ymax greater than 100.0)
- pIC50 ([2]; Homo sapiens, TF-1, 3 h): ≥ 7.00

SMILES: CCN1C(=O)[C@@H](NC(=O)c2cccc(C(F)(F)F)c2)[C@@H](c2ccc(F)cc2)c2c(C(=O)N3CCNCC3C#N)nn(C3CCOCC3)c21 (some centres unmarked) [Compound I-334]
- pEC50 ([1]; Homo sapiens, 240 h): ≥ 7.00
- Nanostring Ymax obs (%) [1]: +++ (Nanostring Ymax greater than 100.0)
- pIC50 ([2]; Homo sapiens, TF-1, 3 h): ≥ 7.00

SMILES: CCN1C(=O)[C@@H](NC(=O)c2cccc(C(F)(F)F)c2)[C@@H](c2ccc(F)cc2)c2c(C(=O)N3CCC[C@H]3C#N)nn(C3CCOCC3)c21 [Compound I-350]
- pEC50 [1]: ≥ 7.00
- Nanostring Ymax obs (%) [1]: +++ (Nanostring Ymax greater than 100.0)
- pIC50 [2]: ≥ 7.00

SMILES: CCN1C(=O)[C@@H](NC(=O)c2cccc(C(F)(F)F)c2)[C@@H](c2ccc(F)cc2)c2c(C(=O)N3CCNC[C@H]3C#N)nn(C3CCOCC3)c21 [Compound I-363, N-((4S,5S)-3-((S)-2-cyanopiperazine-1-carbonyl)-7-ethyl-4-(4-fluorophenyl)-6-oxo-1-(tetrahydro-2H-pyran-4-yl)-4,5,6,7-tetrahydro-1H-pyrazolo[3,4-b]pyridin-5-yl)-3-(trifluoromethyl)benzamide]
- pEC50 ([1]; Homo sapiens, 240 h): ≥ 7.00
- Nanostring Ymax obs (%) [1]: +++ (Nanostring Ymax greater than 100.0)
- pIC50 ([2]; Homo sapiens, TF-1, 3 h): ≥ 7.00

SMILES: CCN1C(=O)[C@@H](NC(=O)c2cccc(C(F)(F)F)c2)[C@@H](c2ccc(F)cc2)c2c(C(=O)N(C)[C@@H](C#N)CCN(C)C)nn(C3CCOCC3)c21 [Compound I-369]
- pEC50 ([1]; Homo sapiens, 240 h): ≥ 7.00
- Nanostring Ymax obs (%) [1]: +++ (Nanostring Ymax greater than 100.0)
- pIC50 ([2]; Homo sapiens, TF-1, 3 h): ≥ 7.00

SMILES: CCN1C(=O)[C@@H](NC(=O)c2cccc(C(F)(F)F)c2)[C@@H](c2ccc(F)cc2)c2c(C(=O)N(C)[C@H](C#N)CCN(C)C)nn(C3CCOCC3)c21 [Compound I-370]
- pEC50 ([1]; Homo sapiens, 240 h): ≥ 7.00
- Nanostring Ymax obs (%) [1]: +++ (Nanostring Ymax greater than 100.0)
- pIC50 ([2]; Homo sapiens, TF-1, 3 h): ≥ 7.00

SMILES: CCN1C(=O)[C@@H](NC(=O)c2cccc(C(F)(F)F)c2)[C@@H](C2CC2)c2c(C(=O)N3C[C@H](F)C[C@H]3C#N)nn(C3CCOCC3)c21 [Compound I-372]
- pEC50 ([1]; Homo sapiens, 240 h): 6.00 to 7.00
- Nanostring Ymax obs (%) [1]: ++ (Nanostring Ymax greater than 50.0 and less than or equal to 100.0)
- pIC50 ([2]; Homo sapiens, TF-1, 3 h): ≥ 7.00

SMILES: CCN1C(=O)[C@@H](NC(=O)c2cccc(C(F)(F)F)c2)[C@@H](C2CC2)c2c(C(=O)N3C[C@H](OC)C[C@H]3C#N)nn(C3CCOCC3)c21 [Compound I-377]
- pEC50 ([1]; Homo sapiens, 240 h): ≥ 7.00
- Nanostring Ymax obs (%) [1]: +++ (Nanostring Ymax greater than 100.0)
- pIC50 ([2]; Homo sapiens, TF-1, 3 h): ≥ 7.00

SMILES: CCN1C(=O)[C@@H](NC(=O)c2cccc(C(F)(F)F)c2)[C@@H](C2CC2)c2c(C(=O)N3CCNC[C@H]3C#N)nn(-c3ccccc3)c21 [Compound I-383]
- pEC50 ([1]; Homo sapiens, 240 h): ≥ 7.00
- Nanostring Ymax obs (%) [1]: ++ (Nanostring Ymax greater than 50.0 and less than or equal to 100.0)
- pIC50 ([2]; Homo sapiens, TF-1, 3 h): ≥ 7.00

SMILES: CCN1C(=O)[C@@H](NC(=O)c2cccc(C(F)(F)F)c2)[C@@H](C)c2c(C(=O)N3[C@H](C#N)C[C@H]4C[C@H]43)nn(C3CCOCC3)c21 [Compound I-387]
- pEC50 [1]: ≥ 7.00
- Nanostring Ymax obs (%) [1]: +++ (Nanostring Ymax greater than 100.0)
- pIC50 [2]: ≥ 7.00

SMILES: CCN1C(=O)[C@@H](NC(=O)c2cccc(C(F)(F)F)c2)[C@@H](C2CC2)c2c(C(=O)N3CC[C@H](OC)[C@H]3C#N)nn(C3CCOCC3)c21 [Compound I-418]
- pEC50 ([1]; Homo sapiens, 240 h): ≥ 7.00
- Nanostring Ymax obs (%) [1]: +++ (Nanostring Ymax greater than 100.0)
- pIC50 ([2]; Homo sapiens, TF-1, 3 h): ≥ 7.00

SMILES: CCN1C(=O)[C@@H](NC(=O)c2cccc(C(F)(F)F)c2)[C@@H](C2CC2)c2c(C(=O)N(C)[C@H](C)C#N)nn(C3CCOCC3)c21 [Compound I-422]
- pEC50 ([1]; Homo sapiens, 240 h): 6.00 to 7.00
- Nanostring Ymax obs (%) [1]: +++ (Nanostring Ymax greater than 100.0)
- pIC50 ([2]; Homo sapiens, TF-1, 3 h): ≥ 7.00
